Values of other authors in article PMC3280530, “Marine Compounds Selectively Induce Apoptosis in Female Reproductive Cancer Cells but Not in Primary-Derived Human Reproductive Granulosa Cells” (Marine Drugs, 2012).

System: caspase-3 and -7 in the Jurkat cell line
Set-up: method as in PMID 17088067
Conditions: after 5 h; cited from earlier work

O=C1Nc2c(cc(Br)c(Br)c2Br)C1=O [5,6,7-tribromoisatin]
concentration activating caspase-3 and -7: 8 µM
